Data on 32 molecules can be found in article PMC6366418, “Evaluation of a flavonoids library for inhibition of pancreatic α-amylase towards a structure–activity relationship” (Journal of Enzyme Inhibition and Medicinal Chemistry, 2019).

The target of assay [1] is T1, porcine pancreatic α-amylase (Sus scrofa, UniProt P00690).
T1 construct: α-Amylase from porcine pancreas; purchased Sigma-Aldrich Co. LLC (St. Louis, MO); host or cells: porcine pancreas (tissue-derived commercial preparation)
T1 sequence (P00690 16-511): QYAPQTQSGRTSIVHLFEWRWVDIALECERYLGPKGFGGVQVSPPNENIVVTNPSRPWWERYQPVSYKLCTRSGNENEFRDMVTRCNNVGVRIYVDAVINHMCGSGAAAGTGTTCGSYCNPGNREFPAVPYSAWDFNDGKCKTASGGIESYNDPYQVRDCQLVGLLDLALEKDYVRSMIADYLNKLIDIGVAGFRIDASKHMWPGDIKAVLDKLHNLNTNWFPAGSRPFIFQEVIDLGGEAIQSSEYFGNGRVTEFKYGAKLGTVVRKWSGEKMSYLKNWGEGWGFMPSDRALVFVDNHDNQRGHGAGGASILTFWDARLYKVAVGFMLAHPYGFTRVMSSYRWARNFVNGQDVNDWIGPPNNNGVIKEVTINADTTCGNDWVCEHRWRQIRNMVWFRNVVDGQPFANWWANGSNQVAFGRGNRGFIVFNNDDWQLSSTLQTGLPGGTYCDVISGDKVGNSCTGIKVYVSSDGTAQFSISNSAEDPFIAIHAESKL
Briefly: In vitro pancreatic α-amylase inhibition assay (CNPG3 substrate, 405 nm).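 On all read-outs here: enzyme rate taken from the absorbance slope between 5 and 30 min of CNPG3 hydrolysis, inhibition derived from these rates, at least three independent experiments.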 It is filed as biochemical. Conditions: for Inhibition of α-amylase activity (in words): up to the highest tested concentration (200 µM); for IC50: enzyme 0.2 U/mL, CNPG3 0.5 mM, pH 6.8, 37 °C.

Assay [2] concerns the target T2, α-amylase from porcine pancreas (Sus scrofa, UniProt P00690).
T2 construct: α-Amylase from porcine pancreas; purchased Sigma-Aldrich Co. LLC (St. Louis, MO); host or cells: porcine pancreas (tissue-derived commercial preparation)
T2 sequence (P00690 16-511): T1 sequence (P00690 16-511)
Description: Inhibitory kinetics of α-amylase (nonlinear regression, Excel Solver). Format: biochemical. The following applies: for Type of inhibition: CNPG3 0.25, 0.5 and 1 mM, best model by F test and AIC; for Vmax: best model; for V max (Solver fit): rate axis DA/min.

A further assay concerns α-amylase. The arrangement: method as in Kim et al.[55] and Yoon and Robyt,[52]. Conditions: ref Kim et al.[55] and Yoon and Robyt,[52]; cited from earlier work.
For assay [3], the target named is T1, porcine pancreatic α-amylase. Set-up: method as in Tadera et al.,[21]. Conditions: highest tested concentration of 0.5 mM; ref Tadera et al.,[21]; cited from earlier work.
The mark [4] stands for this setting: 200 µM, mean ± SEM, read-out: Inhibition (%) at the highest tested concentration.
Setting [5] is: competitive inhibition constant, ± SD (jackknife), read-out: Kic.
[6] abbreviates: supplement, competitive inhibition model.
The mark [7] stands for this setting: supplement, competitive inhibition model, read-out: K ic (Solver fit).

Entries after “also recorded” stand apart in the source; their conditions may differ. Like-named read-outs stand apart in the source and are kept apart here.

Usually IC50 stands for the concentration that gives 50% inhibition. Low readings indicate inhibition by little substance, high ones a need for much substance. A word on the Vmax: it is the top rate of the reaction or transport when substrate is in excess.

Regarding `O=c1c(O)c(-c2ccc(O)c(O)c2)oc2ccccc12` [A5], the inhibition at 200 µM in assay [1] (setting [4]) is 31 ± 3%.

In the case of `O=c1cc(-c2ccc(O)cc2)oc2cc(O)ccc12` [C3], the inhibition at 200 µM in assay [1] (setting [4]) was 36 ± 3%. Besides, the “Inhibition of α-amylase activity (in words)” value in assay [1] is listed as “lack of inhibitory activity”. Turning to `O=c1c(O)c(-c2ccc(O)cc2)oc2cc(O)ccc12` [C5], the IC50 in assay [1] (mean ± SEM) is 59 ± 4 µM. Further, the Type of inhibition result in assay [2] is recorded as “competitive inhibitors; also recorded: competitive inhibition”. For the same molecule, the Vmax in assay [2] (± SD (jackknife)) turned out to be 10.5 ± 0.9 µmol/min. In addition, the Ki in assay [2] (setting [5]) is 71 ± 7 µM. Besides, in assay [2] (setting [6]), the “K m (Solver fit)” value was 0,9963 mM and the “V max (Solver fit)” value is given as 35,186. Further, the Ki in assay [2] (setting [7]) came out at 71.4 µM. As for `O=C1C[C@@H](c2ccc(O)c(O)c2)Oc2cc(O)cc(O)c21` [E2, Eriodictyol], the inhibition at 200 µM in assay [1] (setting [4]) is under 20%. Besides, the “Inhibition of α-amylase activity (in words)” value in assay [1] is “not able to inhibit”.

In turn, `O=c1cc(-c2ccc(O)c(O)c2)oc2cccc(O)c12` [B4] came in with an IC50 in assay [1] (mean ± SEM) of 148 ± 5 µM. For the same molecule, the Type of inhibition entry in assay [2] is “competitive inhibitors; also recorded: competitive inhibition”. The Vmax in assay [2] (± SD (jackknife)) is 12.0 ± 0.6 µmol/min. Besides, the Ki in assay [2] (setting [5]) turned out to be 132 ± 15 µM; in assay [2] (setting [7]) it was 132 µM. Moreover, the “V max (Solver fit)” value in assay [2] (setting [6]) was 40,026555. As for `O=c1cc(-c2cccc(O)c2)oc2cccc(O)c12` [B2], in assay [1] (setting [4]), the inhibition at 200 µM was under 20%. With `C[C@H]1O[C@H](O[C@H]2[C@H](O)[C@@H](O)[C@@H](O[C@H]3[C@H](O)[C@@H](O)C(O)O[C@@H]3CO)O[C@@H]2CO)[C@H](O)[C@@H](O)[C@@H]1N[C@H]1C=C(CO)[C@@H](O)[C@H](O)[C@H]1O` (stereo partly drawn) [Acarbose, reference compound], the Type of inhibition entry in assay [2] was “Mixed”; in assay [2] (listed as acarbose), “mixed-type inhibitor; also recorded: mixed-type inhibition”; in the assay on α-amylase, “mixed type inhibitor”. In assay [2] (± SD (jackknife)), the Vmax amounted to 12.0 ± 0.9 µmol/min. For the same molecule, the “V max (Solver fit)” value in assay [2] (supplement, mixed inhibition model) was 39,76745004.

With `O=C1C[C@@H](c2ccc(O)cc2)Oc2cc(O)cc(O)c21` [E1, Naringenin], in assay [1] (setting [4]), the inhibition at 200 µM is under 20%. In assay [1], the “Inhibition of α-amylase activity (in words)” value was “not able to inhibit”. The “Inhibition of porcine pancreatic α-amylase activity (in words)” value in assay [3] was “not able to inhibit”. For `O=c1cc(-c2cccc(O)c2)oc2cc(O)ccc12` [C2], in assay [1] (setting [4]), the inhibition at 200 µM is 28 ± 3%. With `O=c1cc(-c2ccccc2)oc2cc(O)ccc12` [C1], the inhibition at 200 µM in assay [1] (read-out: Inhibition (%) at the highest tested concentration) is under 20%.

The molecule `O=c1c(O)c(-c2cc(O)c(O)c(O)c2)oc2cc(O)cc(O)c12` [D9, Myricetin] came in with an IC50 in assay [1] (mean ± SEM) of 107 ± 6 µM.

`O=c1cc(-c2ccc(O)cc2)oc2cccc(O)c12` [B3]: the inhibition at 200 µM in assay [1] (setting [4]) was under 20%.

For `O=c1cc(-c2ccccc2)oc2ccccc12` [A1, Flavone], the inhibition at 200 µM in assay [1] (setting [4]) is under 20%. On to `O=c1c(O)c(-c2ccc(O)cc2)oc2cc(O)cc(O)c12` [D6, Kaempferol], for which the midpoint of inhibition in assay [1] (mean ± SEM), the IC50, lay at 118 ± 7 µM.

In the case of `O=c1cc(-c2ccccc2)oc2cc(O)cc(O)c12` [D1, Chrysin], the inhibition at 200 µM in assay [1] (setting [4]) is 22 ± 3%. `O=c1c(O)c(-c2ccccc2)oc2cc(O)cc(O)c12` [D2, Galangin]: the inhibition at 200 µM in assay [1] (setting [4]) was under 20%. Take `COc1ccc(-c2cc(=O)c3c(O)cc(O)cc3o2)cc1OC` [D18]: the inhibition at 200 µM in assay [1] (setting [4]) was 33 ± 3%. On to `COc1ccc(-c2oc3cc(OC)ccc3c(=O)c2O)cc1` [C8], for which the inhibition at 100 µM in assay [1] (100 µM, mean ± SEM, read-out: Inhibition (%) at the highest tested concentration) was under 20%. For the same molecule, the “Inhibition of α-amylase activity (in words)” value in assay [1] is “remained unchanged; also recorded: no inhibitory activity”. Morin [D10]: the “Inhibition (%) at the highest tested concentration” value in assay [1] (200 µM, mean ± SEM) is on record as 23 ± 1 %^200µM*.

`O=c1cc(-c2ccc(O)c(O)c2)oc2ccccc12` [A4]: the inhibition at 200 µM in assay [1] (setting [4]) was 46 ± 2%. For `O=c1cc(-c2ccccc2)oc2cccc(O)c12` [B1], the inhibition at 200 µM in assay [1] (setting [4]) is under 2%. The same measure, in the same setting: the value for `O=c1cc(-c2cccc(O)c2)oc2ccccc12` [A2] was under 20%. Consider `C[C@@H]1O[C@@H](OC[C@H]2O[C@@H](Oc3c(-c4ccc(O)c(O)c4)oc4cc(O)cc(O)c4c3=O)[C@H](O)[C@@H](O)[C@@H]2O)[C@H](O)[C@H](O)[C@H]1O` [D19, Rutin], for which the inhibition at 200 µM in assay [1] (setting [4]) was under 20%. The “Inhibition of α-amylase activity (in words)” value in assay [1] was “no activity was found”. As to `COc1ccc(-c2oc3ccccc3c(=O)c2O)cc1OC` [A6], the inhibition at 200 µM in assay [1] (setting [4]) is under 20%. On to Acacetin [D17], for which, in assay [1] (200 µM, mean ± SEM), the “Inhibition (%) at the highest tested concentration” value is under 20%^200 µM*. `O=c1cc(-c2cccc(O)c2)oc2cc(O)cc(O)c12` [D4]: the IC50 in assay [1] (mean ± SEM) was about 200 µM. Consider `O=c1cc(-c2ccc(O)cc2)oc2ccccc12` [A3], for which the inhibition at 200 µM in assay [1] (setting [4]) was under 20%.

In the case of `O=c1cc(-c2ccc(O)c(O)c2)oc2cc(O)cc(O)c12` [D7, Luteolin], the “Decrease of inhibitory activity / increase of IC50 compared with D11” value in assay [1] (fold, relative to D11) was “two-fold”. Further, the IC50 in assay [1] (mean ± SEM) was found to be 78 ± 3 µM. For `O=c1c(O)c(-c2cccc(O)c2)oc2cc(O)ccc12` [C4], the inhibition at 200 µM in assay [1] (setting [4]) came to 34 ± 3%. The “Inhibition of α-amylase activity (in words)” value in assay [1] is “low activity”. With `O=c1cc(-c2ccc(O)c(O)c2)oc2cc(O)ccc12` [C6], the IC50 in assay [1] (mean ± SEM) was 131 ± 1 µM. `COc1cccc(-c2oc3cc(OC)ccc3c(=O)c2O)c1` [C7]: the inhibition at 200 µM in assay [1] (setting [4]) is under 20%. Moreover, the “Inhibition of α-amylase activity (in words)” value in assay [1] is “remained unchanged; also recorded: no inhibitory activity”. As for `O=C1c2c(O)cc(O)cc2OC(c2ccc(O)c(O)c2)C1O` (stereo not drawn) [E3, Taxifolin], in assay [1] (setting [4]), the inhibition at 200 µM is under 20%. Besides, in assay [1], the “Inhibition of α-amylase activity (in words)” value is “not able to inhibit”.
